# Data: ChEMBL document CHEMBL4118122, “Identification and biological evaluation of thiazole-based inverse agonists of RORγt” (Bioorg Med Chem Lett, 2018)
# Assays:
# [1] = target: 5-hydroxytryptamine receptor 3A (Homo sapiens, UniProt P46098); assay: Displacement of [3H]BRL 43694 from human recombinant 5-HT3 receptor after 120 mins by scintillation counting analysis
# [2] = target: Serine/threonine-protein kinase PAK 4 (Homo sapiens) (UniProt O96013); assay: Inhibition of recombinant GST-tagged human PAK4 catalytic domain expressed in baculovirus expression system at 10 uM in presence of ATP relative to control
# [3] = target: Sodium-dependent serotonin transporter (Homo sapiens, UniProt P31645); assay: Displacement of [3H]-imipramine from recombinant human 5-HT transporter at 1 uM after 60 mins by scintillation counting relative to control
# [4] = target: Casein kinase II subunit alpha (Homo sapiens) (UniProt P68400); assay: Inhibition of CK2alpha1 (unknown origin) at 10 uM in presence of ATP relative to control
# [5] = target: Insulin receptor (Homo sapiens) (UniProt P06213); assay: Inhibition of recombinant His-tagged human InsR (1011 to 1382 residues) expressed in baculovirus expression system at 10 uM in presence of ATP relative to control
# [6] = organism: Rattus norvegicus; assay: Binding affinity to rat GABA receptor at 10 uM after 60 mins by radioligand binding assay relative to control
# [7] = target: Melanocortin receptor 4 (Homo sapiens, UniProt P32245); assay: Displacement of [125I]NDP-alpha -MSH from human recombinant MC4 receptor after 120 mins by scintillation counting analysis
# [8] = target: T1, Nociceptin receptor (Homo sapiens, UniProt P41146); assay: Displacement of [3H]nociceptin from human recombinant NOP receptor at 10 uM after 60 mins by scintillation counting analysis relative to control
# [9] = organism: Rattus norvegicus; assay: Displacement of [3H]D 888 from rat brain L-type calcium channel verapamil binding site at 1 uM after 120 mins by scintillation counting analysis relative to control
# [10] = target: Neuropeptide Y receptor type 1 (Homo sapiens, UniProt P25929); assay: Displacement of [125I]peptide YY from human Y1 receptor after 120 mins by scintillation counting analysis
# [11] = target: 5-hydroxytryptamine receptor 7 (Homo sapiens, UniProt P34969); assay: Displacement of [3H]LSD from human recombinant 5-HT7 receptor after 120 mins by scintillation counting analysis
# [12] = target: 5-hydroxytryptamine receptor 2B (Homo sapiens, UniProt P41595); assay: Displacement of [125I]+/-DOI from human recombinant 5-HT2B receptor after 60 mins by scintillation counting analysis
# [13] = target: T2, Delta-type opioid receptor (Homo sapiens, UniProt P41143); assay: Displacement of [3H]DADLE from human recombinant delta opioid receptor at 10 uM after 60 mins by scintillation counting analysis relative to control
# [14] = target: C-X-C chemokine receptor type 2 (Homo sapiens) (UniProt P25025); assay: Displacement of [125I]IL-8 from human recombinant CXCR2 receptor at 1 uM after 60 mins by scintillation counting analysis relative to control
# [15] = Half life in human microsomes; format: ADME, Microsome
# [16] = target: D(2) dopamine receptor (Homo sapiens, UniProt P14416); assay: Displacement of [3H]7-OH-DPAT from human recombinant dopamine D2S receptor after 60 mins by scintillation counting analysis
# [17] = target: Muscarinic acetylcholine receptor M2 (Homo sapiens) (UniProt P08172); assay: Displacement of [3H]AF-DX 384 from human recombinant M2 receptor at 10 uM after 60 mins by scintillation counting analysis relative to control
# [18] = target: Neuropeptide Y receptor type 1 (Homo sapiens) (UniProt P25929); assay: Displacement of [125I]peptide YY from human Y1 receptor at 1 uM after 120 mins by scintillation counting analysis relative to control
# [19] = target: Muscarinic acetylcholine receptor M1 (Homo sapiens, UniProt P11229); assay: Displacement of […] from human recombinant M1 receptor after 60 mins by scintillation counting analysis
# [20] = target: Calcium/calmodulin-dependent protein kinase type II subunit beta (Homo sapiens) (UniProt Q13554); assay: Inhibition of recombinant full length His-tagged human CaMK2beta expressed in baculovirus expression system at 10 uM in presence of ATP relative to control
# [21] = target: Adenosine receptor A2a (Homo sapiens, UniProt P29274); assay: Displacement of [3H]-CGS 21680 from human recombinant adenosine A2A receptor at 1 uM after 120 mins by scintillation counting analysis relative to control
# [22] = target: T1, Nociceptin receptor; assay: Displacement of [3H]nociceptin from human recombinant NOP receptor at 1 uM after 60 mins by scintillation counting analysis relative to control
# [23] = Initial plasma concentration in Sprague-Dawley rat at 1 mg/kg, iv; format: ADME, organism-based
# [24] = target: Somatostatin receptor (Mus musculus) (UniProt P30935+O08858+P30875+P30873+P49660); assay: Displacement of [125I]Tyr11-somatostatin-14 from mouse SST receptor at 1 uM after 60 mins by scintillation counting analysis relative to control; format: protein assay
# [25] = target: Ephrin type-A receptor 2 (Homo sapiens) (UniProt P29317); assay: Inhibition of recombinant GST-tagged human EPHA2 (560 to 976 residues) cytoplasmic domain expressed in baculovirus expression system at 10 uM in presence of ATP relative to control
# [26] = target: Cytochrome P450 2C9 (Homo sapiens, UniProt P11712); assay: Inhibition of CYP2C9 (unknown origin); format: ADME
# [27] = target: Adenosine receptor A3 (Homo sapiens) (UniProt P0DMS8); assay: Displacement of [125I]AB-MECA from human recombinant adenosine A3 receptor at 10 uM after 120 mins by scintillation counting analysis relative to control
# [28] = target: 5-hydroxytryptamine receptor 6 (Homo sapiens, UniProt P50406); assay: Displacement of [3H]LSD from human recombinant 5-HT6 receptor at 10 uM after 120 mins by scintillation counting analysis relative to control
# [29] = target: C-C chemokine receptor type 1 (Homo sapiens) (UniProt P32246); assay: Displacement of [125I]MIP-1alpha from human recombinant CCR1 receptor at 1 uM after 120 mins by scintillation counting analysis relative to control
# [30] = Volume of distribution at steady state in Sprague-Dawley rat at 1 mg/kg, iv; format: ADME, organism-based; settings: in vivo, read-out: Vdss
# [31] = target: T2, Delta-type opioid receptor; assay: Displacement of [3H]DADLE from human recombinant delta opioid receptor at 1 uM after 60 mins by scintillation counting analysis relative to control
# [32] = Half life in Sprague-Dawley rat at 1 mg/kg, iv; format: ADME, organism-based; settings: in vivo
# [33] = target: 5-hydroxytryptamine receptor 5A (Homo sapiens, UniProt P47898); assay: Displacement of [3H]LSD from human recombinant 5-HT5a receptor at 1 uM after 120 mins by scintillation counting analysis relative to control
# [34] = target: Sodium-dependent noradrenaline transporter (Homo sapiens, UniProt P23975); assay: Displacement of [3H]nisoxetine from recombinant human norepinephrine transporter at 1 uM after 120 mins by scintillation counting analysis relative to control
# [35] = target: C-C chemokine receptor type 1 (Homo sapiens, UniProt P32246); assay: Displacement of [125I]MIP-1alpha from human recombinant CCR1 receptor after 120 mins by scintillation counting analysis
# C-C chemokine receptor type 1, sequence (P32246 whole entry): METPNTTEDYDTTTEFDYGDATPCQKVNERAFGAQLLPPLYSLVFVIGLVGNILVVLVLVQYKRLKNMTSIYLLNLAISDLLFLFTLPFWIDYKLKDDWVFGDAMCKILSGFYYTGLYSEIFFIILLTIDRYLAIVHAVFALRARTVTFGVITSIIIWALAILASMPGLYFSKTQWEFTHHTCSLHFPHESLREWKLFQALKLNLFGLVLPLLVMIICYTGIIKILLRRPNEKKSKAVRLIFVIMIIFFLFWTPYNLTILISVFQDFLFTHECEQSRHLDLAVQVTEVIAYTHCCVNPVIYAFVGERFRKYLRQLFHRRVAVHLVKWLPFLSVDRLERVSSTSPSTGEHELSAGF
# T1 sequence (P41146 whole entry): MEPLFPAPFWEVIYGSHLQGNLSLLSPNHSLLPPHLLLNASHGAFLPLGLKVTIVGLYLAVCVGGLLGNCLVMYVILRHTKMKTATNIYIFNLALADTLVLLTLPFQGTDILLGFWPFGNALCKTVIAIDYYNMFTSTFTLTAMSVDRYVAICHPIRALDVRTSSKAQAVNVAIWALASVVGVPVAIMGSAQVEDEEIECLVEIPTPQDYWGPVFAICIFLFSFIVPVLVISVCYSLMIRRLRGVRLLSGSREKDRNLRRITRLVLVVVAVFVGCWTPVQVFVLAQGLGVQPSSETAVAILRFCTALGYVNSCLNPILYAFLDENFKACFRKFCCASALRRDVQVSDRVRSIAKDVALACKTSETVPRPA
# T2 sequence (P41143 whole entry): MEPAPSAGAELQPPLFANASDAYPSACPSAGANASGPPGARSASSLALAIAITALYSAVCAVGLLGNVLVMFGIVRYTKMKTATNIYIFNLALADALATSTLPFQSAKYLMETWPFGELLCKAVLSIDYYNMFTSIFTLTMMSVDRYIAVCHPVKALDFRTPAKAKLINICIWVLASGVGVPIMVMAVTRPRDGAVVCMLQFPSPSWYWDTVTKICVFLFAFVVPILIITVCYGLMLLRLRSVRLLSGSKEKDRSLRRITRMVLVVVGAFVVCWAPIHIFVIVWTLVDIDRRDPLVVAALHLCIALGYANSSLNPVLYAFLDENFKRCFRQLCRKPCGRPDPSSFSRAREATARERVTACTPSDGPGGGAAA
# Melanocortin receptor 4, sequence (P32245 whole entry): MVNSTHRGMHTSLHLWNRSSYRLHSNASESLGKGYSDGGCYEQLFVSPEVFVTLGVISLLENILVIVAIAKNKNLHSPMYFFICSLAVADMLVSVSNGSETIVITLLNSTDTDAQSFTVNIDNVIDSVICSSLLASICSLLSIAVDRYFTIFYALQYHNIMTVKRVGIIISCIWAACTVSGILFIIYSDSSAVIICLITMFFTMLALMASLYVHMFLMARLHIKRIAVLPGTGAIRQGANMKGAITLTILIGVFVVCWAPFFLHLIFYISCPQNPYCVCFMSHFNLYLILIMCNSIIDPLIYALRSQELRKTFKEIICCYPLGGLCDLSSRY
# 5-hydroxytryptamine receptor 2B, sequence (P41595 whole entry): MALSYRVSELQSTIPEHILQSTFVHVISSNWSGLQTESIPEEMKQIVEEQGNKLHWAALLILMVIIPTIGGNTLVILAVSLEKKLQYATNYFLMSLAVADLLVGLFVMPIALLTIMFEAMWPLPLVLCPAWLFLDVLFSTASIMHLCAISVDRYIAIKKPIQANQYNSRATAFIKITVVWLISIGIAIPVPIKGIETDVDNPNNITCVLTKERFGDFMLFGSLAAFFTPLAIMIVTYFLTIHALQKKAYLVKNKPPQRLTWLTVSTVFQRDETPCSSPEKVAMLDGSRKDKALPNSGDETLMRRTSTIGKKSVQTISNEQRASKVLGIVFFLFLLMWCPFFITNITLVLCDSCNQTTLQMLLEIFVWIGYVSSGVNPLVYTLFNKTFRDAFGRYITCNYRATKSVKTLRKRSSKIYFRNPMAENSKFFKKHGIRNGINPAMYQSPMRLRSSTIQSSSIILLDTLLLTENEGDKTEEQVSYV
# D(2) dopamine receptor, sequence (P14416 whole entry): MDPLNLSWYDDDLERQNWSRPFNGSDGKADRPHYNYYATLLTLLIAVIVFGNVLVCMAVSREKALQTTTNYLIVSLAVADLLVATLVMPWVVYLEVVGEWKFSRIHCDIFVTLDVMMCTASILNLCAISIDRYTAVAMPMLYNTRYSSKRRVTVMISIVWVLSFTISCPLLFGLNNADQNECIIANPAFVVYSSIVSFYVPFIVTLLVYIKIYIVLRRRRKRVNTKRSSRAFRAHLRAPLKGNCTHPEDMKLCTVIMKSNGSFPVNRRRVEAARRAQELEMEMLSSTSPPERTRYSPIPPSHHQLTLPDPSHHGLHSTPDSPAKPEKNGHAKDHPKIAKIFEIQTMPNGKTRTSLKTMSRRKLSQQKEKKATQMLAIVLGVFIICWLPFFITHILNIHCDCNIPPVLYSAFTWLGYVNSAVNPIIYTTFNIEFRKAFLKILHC
# 5-hydroxytryptamine receptor 5A, sequence (P47898 whole entry): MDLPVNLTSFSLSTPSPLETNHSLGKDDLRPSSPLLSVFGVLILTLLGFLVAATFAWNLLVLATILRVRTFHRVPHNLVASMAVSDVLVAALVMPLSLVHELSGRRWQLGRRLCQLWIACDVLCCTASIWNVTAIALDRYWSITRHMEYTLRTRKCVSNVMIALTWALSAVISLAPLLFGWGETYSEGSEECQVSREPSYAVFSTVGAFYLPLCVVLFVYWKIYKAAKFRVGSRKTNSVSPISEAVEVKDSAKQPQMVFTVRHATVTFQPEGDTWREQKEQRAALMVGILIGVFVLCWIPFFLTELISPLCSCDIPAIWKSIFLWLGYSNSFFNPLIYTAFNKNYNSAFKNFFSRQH
# Muscarinic acetylcholine receptor M1, sequence (P11229 whole entry): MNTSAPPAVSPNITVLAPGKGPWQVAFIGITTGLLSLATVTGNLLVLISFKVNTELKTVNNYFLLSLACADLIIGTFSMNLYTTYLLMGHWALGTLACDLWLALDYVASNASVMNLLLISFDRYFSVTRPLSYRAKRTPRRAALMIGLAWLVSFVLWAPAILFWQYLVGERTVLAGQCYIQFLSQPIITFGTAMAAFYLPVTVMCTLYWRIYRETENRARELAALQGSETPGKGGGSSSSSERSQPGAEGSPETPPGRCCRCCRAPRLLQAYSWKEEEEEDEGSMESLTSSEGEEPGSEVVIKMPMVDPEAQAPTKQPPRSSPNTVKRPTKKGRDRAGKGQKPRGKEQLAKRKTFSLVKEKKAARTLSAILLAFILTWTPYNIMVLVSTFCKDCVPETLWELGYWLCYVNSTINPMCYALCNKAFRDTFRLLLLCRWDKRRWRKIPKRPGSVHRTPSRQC
# Adenosine receptor A3 (Homo sapiens), sequence (P0DMS8 whole entry): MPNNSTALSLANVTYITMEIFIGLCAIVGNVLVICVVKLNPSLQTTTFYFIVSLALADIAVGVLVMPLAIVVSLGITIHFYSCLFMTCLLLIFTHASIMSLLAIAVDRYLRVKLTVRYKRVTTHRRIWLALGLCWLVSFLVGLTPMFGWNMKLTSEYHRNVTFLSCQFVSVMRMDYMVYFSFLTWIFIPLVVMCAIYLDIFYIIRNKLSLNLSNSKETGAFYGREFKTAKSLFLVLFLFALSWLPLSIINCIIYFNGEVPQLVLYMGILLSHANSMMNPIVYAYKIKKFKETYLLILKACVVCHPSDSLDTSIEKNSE
# C-C chemokine receptor type 1 (Homo sapiens), sequence (P32246 whole entry): as the sequence (P32246 whole entry) above
# Sodium-dependent serotonin transporter, sequence (P31645 whole entry, looked up): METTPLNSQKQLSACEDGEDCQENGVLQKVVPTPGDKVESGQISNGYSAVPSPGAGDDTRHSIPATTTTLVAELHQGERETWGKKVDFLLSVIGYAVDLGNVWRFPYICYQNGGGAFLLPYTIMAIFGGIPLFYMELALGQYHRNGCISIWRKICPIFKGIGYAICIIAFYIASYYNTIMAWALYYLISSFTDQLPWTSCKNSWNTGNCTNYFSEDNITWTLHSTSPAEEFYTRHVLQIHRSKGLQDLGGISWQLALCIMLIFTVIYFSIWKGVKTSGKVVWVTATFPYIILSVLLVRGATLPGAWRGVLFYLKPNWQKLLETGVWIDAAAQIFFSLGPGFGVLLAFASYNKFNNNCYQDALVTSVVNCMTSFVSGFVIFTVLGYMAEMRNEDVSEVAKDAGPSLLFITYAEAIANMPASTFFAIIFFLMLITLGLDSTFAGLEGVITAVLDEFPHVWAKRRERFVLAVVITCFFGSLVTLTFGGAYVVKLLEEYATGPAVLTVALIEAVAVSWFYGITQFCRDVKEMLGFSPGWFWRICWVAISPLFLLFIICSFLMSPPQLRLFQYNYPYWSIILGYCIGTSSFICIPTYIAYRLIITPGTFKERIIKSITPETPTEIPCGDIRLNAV
# C-X-C chemokine receptor type 2 (Homo sapiens), sequence (P25025 whole entry): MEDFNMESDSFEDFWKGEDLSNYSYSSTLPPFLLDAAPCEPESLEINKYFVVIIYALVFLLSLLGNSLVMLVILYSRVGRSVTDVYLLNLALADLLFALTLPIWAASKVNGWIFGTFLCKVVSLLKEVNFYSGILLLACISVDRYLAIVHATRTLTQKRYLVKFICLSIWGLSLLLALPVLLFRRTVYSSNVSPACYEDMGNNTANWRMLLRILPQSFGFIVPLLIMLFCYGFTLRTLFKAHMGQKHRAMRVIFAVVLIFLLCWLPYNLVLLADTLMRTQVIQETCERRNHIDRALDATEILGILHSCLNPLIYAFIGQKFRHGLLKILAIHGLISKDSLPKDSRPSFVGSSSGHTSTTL
# Neuropeptide Y receptor type 1 (Homo sapiens), sequence (P25929 whole entry): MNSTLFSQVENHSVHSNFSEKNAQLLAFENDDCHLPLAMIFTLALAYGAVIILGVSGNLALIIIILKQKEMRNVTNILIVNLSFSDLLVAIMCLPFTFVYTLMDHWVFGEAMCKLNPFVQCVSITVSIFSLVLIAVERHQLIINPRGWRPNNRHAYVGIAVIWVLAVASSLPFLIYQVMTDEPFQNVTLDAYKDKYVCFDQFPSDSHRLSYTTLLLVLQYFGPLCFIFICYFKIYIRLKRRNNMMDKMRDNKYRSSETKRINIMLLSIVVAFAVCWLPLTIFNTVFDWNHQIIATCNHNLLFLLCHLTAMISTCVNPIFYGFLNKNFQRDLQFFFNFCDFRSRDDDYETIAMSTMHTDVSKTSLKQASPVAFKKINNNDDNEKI
smiles,measurement,setting,value
CC(C)(C)NS(=O)(=O)c1ccc(-c2sc(C(=O)N[C@H]3C[C@H](C(=O)O)C3)nc2CC2CCCCC2)c2ccccc12,IC50,[1],4.9 nM
same,inhibition,[2],7%
same,inhibition,[3],< 10%
same,inhibition,[4],0%
same,inhibition,[5],-4%
same,inhibition,[6],14%
same,IC50,[7],0.21 nM
same,inhibition,[8],< 10%
same,inhibition,[9],< 10%
same,IC50,[10],0.13 nM
same,IC50,[11],0.39 nM
same,IC50,[12],3.2 nM
same,inhibition,[13],22%
same,inhibition,[14],< 10%
same,half-life,[15],75 min
same,IC50,[16],1.8 nM
same,inhibition,[17],12%
same,inhibition,[18],< 10%
same,IC50,[19],18 nM
same,inhibition,[20],6%
same,inhibition,[21],21%
same,inhibition,[22],< 10%
same,C0,[23],4430 ng/mL
same,inhibition,[24],< 10%
same,inhibition,[25],-7%
same,INH,[26],9.9 µM
same,inhibition,[27],81%
same,inhibition,[28],33%
same,inhibition,[29],< 10%
same,Vd,[30],1.1 L/kg
same,inhibition,[31],12%
same,half-life,[32],42 min
same,inhibition,[33],< 10%
same,inhibition,[34],< 10%
same,IC50,[35],0.081 nM
